{"source": "patent US10624875B2", "about": "“Methods and compositions for treating schizophrenia” (The Johns Hopkins University, priority 2012, dated 2020)", "format_in_all_cases": "in vivo, human", "key": {"entorhinal cortex (EC)": {"test_system": "entorhinal cortex (EC)", "assay": "fMRI activity during explicit 3-alternative forced choice task, entorhinal cortex", "settings": "aMCI subjects, 125 mg twice a day for two weeks, versus placebo", "method": "A within-subjects trial of 8 weeks duration, involving 17 amnestic MCI (aMCI) subjects and 17 age-matched controls with a low dose treatment of levetiracetam is conducted. During the course of the study, each aMCI subject receives both drug and placebo treatments separately in two periods of two weeks each, with the order of treatments among different aMCI subjects counterbalanced (see FIG. 7). Age-matched control subjects treated with placebo serve as a further control. Cognitive testing and fMRI imaging data are obtained from the subjects after each two week period of drug/placebo treatment. As described above, the drug treatment period is the two weeks preceding Visit 1 or 2 (with the two week period preceding the other Visit being the placebo phase). […] Imaging data are obtained through high-resolution methods developed in the Stark laboratory. Data are collected on a Phillips 3 Tesla scanner (Eindhoven, The Netherlands) equipped with an 8-channel SENSE (Sensitivity Encoding) head coil, located at the F.M. Kirby Research Center for Functional Brain Imaging at the Kennedy Krieger Institute (Baltimore, Md.). […] Group data are analyzed using a two-way Analysis of Variance (ANOVA) with trial types and group as fixed factors, and subject as a random factor nested within group. […]"}, "aMCI subjects [1]": {"test_system": "aMCI subjects", "assay": "Buschke Selective Reminding Test - Delayed Recall", "settings": "125 mg twice a day for two weeks", "method": "(§1) A within-subjects trial of 8 weeks duration, involving 17 amnestic MCI (aMCI) subjects and 17 age-matched controls with a low dose treatment of levetiracetam is conducted. During the course of the study, each aMCI subject receives both drug and placebo treatments separately in two periods of two weeks each, with the order of treatments among different aMCI subjects counterbalanced (see FIG. 7). Age-matched control subjects treated with placebo serve as a further control. Cognitive testing and fMRI imaging data are obtained from the subjects after each two week period of drug/placebo treatment.\nAll participants undergo neuropsychological evaluation at the time of assessment for treatment efficacy (Visits 1 and 2), as well as at the Baseline Visit. The evaluation occurs outside of the scanner and includes the Buschke Selective Reminding Test (Buschke and Fuld, 1974) and the Verbal Paired Associates subtest, the Logical Memory subtest, the Visual Reproduction subtest of the Wechsler Memory Scale-Revised (WMS-R) (Wechsler, 1997), and the Benton Visual Retention Test, as these tasks are particularly sensitive to medial temporal lobe function and early memory problems (Marquis et al., 2002 and Masur et al., 1994). […]"}, "aMCI subjects [2]": {"test_system": "aMCI subjects", "assay": "Verbal Paired Associates Test - Recognition", "settings": "125 mg twice a day for two weeks", "method": "as §1\nAll participants undergo neuropsychological evaluation at the time of assessment for treatment efficacy (Visits 1 and 2), as well as at the Baseline Visit. […]\nAs described above, the drug treatment period is the two weeks preceding Visit 1 or 2 (with the two week period preceding the other Visit being the placebo phase). For the subjects receiving the drug treatment, half a scored 250 mg tablet of levetiracetam is used to achieve a dose of […], which is approximately 3.6 mg/kg/day (assuming an average adult human weight of 70 kg)."}}, "data": [{"smiles": "CC[C@@H](C(N)=O)N1CCCC1=O", "note": "[levetiracetam, (2S)-2-(2-oxopyrrolidin-1-yl) butanamide]", "values": [{"measurement": "EC activity during memory judgments", "setting": "entorhinal cortex (EC)", "result": "increases EC activity"}, {"measurement": "performance in Buschke Selective Reminding Test - Delayed Recall", "setting": "aMCI subjects [1]", "result": "fail to rescue performance"}, {"measurement": "performance in Verbal Paired Associates Test - Recognition", "setting": "aMCI subjects [2]", "result": "fail to rescue performance"}]}]}
